In patent US20210228500A1, “CELLULAR RETINOID BINDING PROTEIN ANTAGONISTS AND USES THEREOF” (CASE WESTERN RESRVE UNIVERSITY, priority 2018, published 2021):
Entries after “also recorded” stand apart in the source; their conditions may differ.

Legend:
holo-CRBP1 [1] = molecular target: T1, holo-CRBP1 (Homo sapiens, UniProt P09455); experiment: High-throughput screening for CRBP1 ligands; type: binding; conditions: 986 compounds at 5 μM, 1 μM holo-CRBP1
T1 construct: made in house
T1 sequence (P09455 1-135): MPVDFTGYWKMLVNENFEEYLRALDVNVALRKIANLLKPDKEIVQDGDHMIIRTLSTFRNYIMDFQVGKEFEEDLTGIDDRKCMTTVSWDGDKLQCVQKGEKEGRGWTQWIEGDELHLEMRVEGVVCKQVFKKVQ
Experimental: The principle of the fluorescence binding assays described above was adapted for the HTS in a 96-well plate format. Each well contained 0.2 mL of 20 mM Tris/HCl, pH 7.4 and 1 μM of holo-CRBP1. Tested compounds from two independent libraries (Bioactive Lipid I Screening Library form Cayman Chemicals and Screen-Well Bioactive Lipid Library from Enzo Life Science, total of 986 chemicals) were delivered in dimethyl sulfoxide (DMSO) to the final concentration of 5 μM. After 15 min of incubation at room temperature (RT), the samples were excited at 285 nm, and the fluorescence signals from CRBP1 (at 350 nm) and atROL (at 480 nm) were recorded in a Flexstation3 microplate reader (Molecular Devices). Changes in the fluorescence emissions were evaluated by calculating ratio between signals at 480 and 350 nm. To eliminate false positives, only those wells in which the increase in protein fluorescence was accompanied by proportional decline in the fluorescence of atROL were considered as potential hits.
To search for compounds interacting with CRBP1, we developed an HTS strategy that minimalized experimental bias associated with investigating the binding of hydrophobic ligands to a protein specialized for interaction with small lipophilic molecules. It is based on the fluorescence properties of CRBP1 in complex with its natural ligand, atROL. […]

holo-CRBP1 [2] = molecular target: T1, holo-CRBP1; experiment: Retinol replacement assay with repurification and LC/MS; type: binding
Experimental: holo-CRBP1 (500 μg) in 0.5 mL (67 μM) was incubated with tested compound (1:2 molar ratio) delivered in ethanol in 20 mM Tris/HCl, pH 8.0, 200 mM NaCl, 5% glycerol (v/v) at RT for 15 min. The sample was then diluted with 10 mM Tris/HCl, pH 8.0 to the final volume of 5 mL, loaded onto HiTrap Q HP column, and eluted as described above. The elution profiles were monitored at both 280 and 325 nm to concurrently record signals for the protein and the retinoid moieties.
After incubation of apo- or holo-CRBP1 with abn-CBD, the protein was repurified on HiTrap Q HP column as described above. The protein fractions were collected, pooled together, and concentrated to 0.25 mL in an Amicon Ultra-4 centrifugal filter, cutoff 10,000 Da. For quantification purpose, 100 pmol of 3d-abn-CBD (internal standard) were added to the protein samples. To extract organic compounds associated with the repurified CRBP1, 0.25 mL of ethanol was added followed by 4 mL of hexane. […] Abn-CBD and its deuterated derivative were detected in the selected reaction monitoring (SRM) mode using m/z 315.2→221.2 and 318.2→224.1 transitions, respectively. Calibration curves were calculated based on the linear relationship between areas under SRM ion intensity for peaks corresponding to abn-CBD and the internal standard versus molar ratios of these compounds in a range from 20 to 500 pmol.

[3] = Detection and quantification of abn-CBD in the ocular tissues; type: in vivo, Balb/cJ mice; conditions: single dose 15 mg kg^−1 i.p.
Experimental: Balb/cJ mice were i.p. injected with 15 mg kg^−1 dose of abn-CBD. At the time points between 1 and 15 h, they were deeply anesthetized by ketamine/xylazine injection and perfused with PBS. Perfused eyes were collected and homogenized in 1 mL of PBS/methanol (v/v). During the homogenization, 100 pmol of an internal standard (3d-abn-CBD) was added. The samples were extracted with 4 mL of hexane and centrifuged at 15,000 g for […] at 4° C. The organic solvent was transferred to glass test tubes and dried in a Savant speedvac concentrator (Thermo Fisher Scientific). The extracted compounds were dissolved in 0.3 mL of ethanol and subjected to LC/MS analysis and quantification as described above.

Balb/cJ mice = experiment: Electroretinography (ERG) after photobleach; type: in vivo; conditions: 30 mg kg^−1; scotopic ERG 4 h after flash of light
Experimental: Before the ERG recording, dark-adapted Balb/cJ mice were anesthetized with 20 mg mL^−1 ketamine and 1.75 mg mL^−1 xylazine in PBS at a dose of 0.1-0.13 mL per 25 g of body weight, and pupils were dilated with 1% tropicamide. Contact lens electrodes were placed on the eyes, and a reference electrode was positioned between two ears, while ground electrode was placed on the tail. Scotopic ERGs were recorded for both eyes of each mouse using a UTAS E-3000 universal testing and ERG system (LKC Technologies).
To quantify the effect of the CRBP1 inhibitor on the recovery of visual sensitivity after a light stimulus, we measured full-field electroretinography (ERG) responses in mice. Prior to the illumination, the animals were either treated with DMSO (vehicle) or abn-CBD. Both drugs were administrated in a dose of 30 mg kg^−1. Scotopic ERG responses at varying light intensities were recorded 4 h after the exposure to a flash of light that photobleached ˜50% of the visual pigment. […] However, even in a relatively high dose used in this experiment, the inhibitor of CRBP1 had much smaller impact on the visual cycle without causing its blockage, as it was reported for retinylamine and emixustat.

C=C(C)[C@@H]1CCC(C)=C[C@H]1c1c(O)cc(O)cc1CCCCC [abn-CBD, 4-[(1R,6R)-3-Methyl-6-prop-1-en-2-ylcyclohex-2-en-1-yl]-5-pentylbenzene-1,3-diol]
HTS result (holo-CRBP1 [1]): unique hit; also recorded: single hit | loss of atROL from holo-CRBP1 (absorbance at 325 nm) (holo-CRBP1 [2]; holo-CRBP1 incubated with compound 1:2 molar ratio, repurified): diminished absorbance at 325 nm; also recorded: depletion of atROL | replacement of atROL by ligand (ligand/protein quantification) (holo-CRBP1 [2]; holo-CRBP1 with 2 molar excess of abn-CBD, LC/MS): proportional replacement of the retinoid by the cannabinoid | half-life ([3]; Balb/cJ, mouse, eye (PBS-perfused, homogenate), ip): ~7 h | time of maximum ocular level after the injection [3]: 2 h | ocular level, maximum value ([3]; PBS-perfused eyes): 58 pmol/eye | recovery of a-wave and b-wave amplitudes (dark adaptation) (Balb/cJ mice): slower; also recorded: slight delay in the dark adaptation
